Where a SMILES comes first, the peptide text is derived from it. Bridges are numbered along the chain shown (N, C = ends). The star is where a group is joined. DOTA = O=C(O)CN1CCN(CC(=O)O)CCN(CC(=O)*)CCN(CC(=O)O)CC1
Tests used:
ITGαvβ6 = ITGαvβ6 (Homo sapiens, UniProt P06756+P18564); assay: Surface plasmon resonance assay (SPR), ITGαvβ6; format: binding; conditions: peptide immobilized, integrin as analyte, 1:1 Langmuir fit
Method: (§1) Assessment of the binding affinity was performed on a BiaCore X100 (GE Healthcare). To avoid denaturation of the heterodimer during amide activation ITGαvβ6 and ITGαvβ3, respectively, were used as analytes and SFITGv6 was immobilized at its N-terminus on a C1 sensor Chip (BR-1005-35, GE Healthcare) using a manual amine coupling protocol. Briefly, after activation of the sensor chip surface with a solution of EDC 0.4 M/NHS 0.1 M for 5 min a 100 μM peptide dissolved in HBS-EP running buffer (0.1 M HEPES, 30 mM EDTA, 1.5 M NaCl, 0.5% surfactant P20, pH 7.2) was immobilized with a contact time of 30 sec until a loading level of 18 response units (RU) was obtained. […] The SPR-sensogram data were evaluated with the BiaCore evaluation software. The dissociation constant (KD) was determined by a 1:1 Langmuir model fit of the SPR-sensograms.
Assessment of the binding affinity was performed on a BiaCore X100 (GE Healthcare). To avoid denaturation of the heterodimer during amide activation ITGαvβ6 and ITGαvβ3, respectively, were used as analytes and SFITGv6 was immobilized at its N-terminus on a C1 sensor Chip (BR-1005-35, GE Healthcare) using a manual amine coupling protocol. […] The SPR sensogram data were evaluated with the BiaCore evaluation software. The dissociation constant (KD) was determined by a 1:1 Langmuir model fit of the SPR sensograms.

ITGαvβ3 = ITGαvβ3 (Homo sapiens, UniProt P05106+P06756); assay: Surface plasmon resonance assay (SPR), ITGαvβ3; format: binding
Method: as §1
as §1, with “SFLAP3” for “peptide”, “to obtain” for “until”, “12” for “18”, “(RU).” for “(RU) was obtained.”, “SPR sensogram” for “SPR-sensogram”, “SPR sensograms.” for “SPR-sensograms.”

[1] = Biodistribution, Capan-2 xenografts; format: in vivo, mice; conditions: Balb/c nude, mouse, tumor (Capan-2 xenograft), iv, 1 MBq, total radioactivity; after 1 hour (highest)
Method: 6 to 8 week old Balb c/c nude mice (Charles River Lab.) were inoculated with 5*10^6 Capan-2 cells in 100 μl Opti-MEM medium. After 4 to 6 weeks the tumor has grown 10-15 mm in diameter. For small animal PET imaging 25 MBq of the ^68Ga-labeled peptide (2 nmol) was injected into the tail vein.
For biodistribution assays 1 MBq of ^177Lu-labeled peptide was injected into the tail vein of each mouse. After different time points each animal was sacrificed. Peripheral blood, spleen, liver, intestine, kidney, heart, lung, brain, muscle, and tumor were removed and weighted. Radioactivity was measured in a gamma counter and expressed as injected dose per gram (% ID/g).

HNO97 cells = assay: In vitro binding, kinetics, internalization and efflux on HNO97 cells; format: cell-based, human
Method: For binding studies, 2.5×10^5 to 4×10^5 cells were seeded in 6-well plates and cultivated for 48 hours. Cells were incubated for 60 min with 1 mL serum-free medium containing the ^125I-labeled peptide (see above). For competition experiments, cells were simultaneously exposed to unlabeled (10^-4 M to 10^-10 M) and ^125I-labeled peptides. After three washing steps with PBS (pH 7.4) the cells were lysed with 0.5 mL of 0.3 M NaOH. Experiments concerning the internalization, kinetics and efflux were additionally performed with ^177Lu-DOTA-SFITGv6. To evaluate kinetics and efflux HNO97 cells were incubated for different time intervals (10 min to 480 min) and 60 min, respectively, with ^177Lu-DOTA-SFITGv6 and lysed as described. To continue with the efflux experiment radioactive medium was replaced by non-radioactive medium and cells were incubated again for 60 to 240 min before measuring radioactivity of the cell lysates and the medium. For internalization experiments the cells were exposed to ^177Lu-DOTA-SFITGv6 for different time intervals (10 to 240 min) at 37° C. and 4° C. After three washing steps with PBS the cells were incubated with 1 mL of glycine-HCl 50 mmol/L in PBS (pH 2.8) for 10 min at RT to remove the surface bound activity. Then, cells were washed with 3 mL of ice-cold PBS and lysed as described. Radioactivity was determined in a gamma counter and calculated as percentage of the applied dose per 1×10^6 cells. Experiments were performed three times, and three repetitions per independent experiment were acquired.
For the assessment of the peptide binding capacity in vitro, 2.5-4×10^5 cells were seeded into 6-well plates and cultivated for 48 h. ^125I-labeled peptide resuspended in 1 mL serum-free medium was added and incubated for either 10 min or 60 min with or without different concentrations of unlabeled peptide (10^−4-10^−11 M). Afterwards, cell monolayers were washed three times with 1 mL phosphate-buffered saline (pH 7.4) to remove unbound peptide and the cells were harvested with 1.4 mL lysis buffer (0.3 M NaOH). To evaluate kinetic properties the cells were exposed to ^177Lu-DOTA-labeled peptides for 10, 30, 60, 120, and 240 min, respectively, and lysed as described. For the efflux experiments the cells were incubated with ^177Lu-DOTA-labeled peptides for 60 min. Thereafter, radioactive medium was replaced by non-radioactive medium and cell monolayers were incubated for additional 60, 120, and 240 min and afterwards lysed as described earlier. The internalization was assessed after exposure of the cells to ^177Lu-DOTA-labeled peptides for 10, 30, 60, 120, and 240 min at 37° C. Unspecifically bound peptide was removed from the surface by incubation with 1 M glycine-HCl solution (pH 2.2) for 10 min. The monolayer cell was rinsed with PBS and cells were lysed as described before. Radioactivity was determined in a y-counter and calculated as percentage of the applied dose per 1×10^6 cells. Experiments were performed three times, and three repetitions per independent experiment were acquired.

[2] = system: metastasized pancreatic cancer; assay: PET/CT and scintigraphy of pancreatic cancer patient; format: in vivo, human; conditions: 1 day after 6.5 GBq
Method: PET/CT scans of tumor patients and body scintigraphy were performed as described in Example 1.

Sequence of ITGαvβ3 (P06756 31-992 limits assumed): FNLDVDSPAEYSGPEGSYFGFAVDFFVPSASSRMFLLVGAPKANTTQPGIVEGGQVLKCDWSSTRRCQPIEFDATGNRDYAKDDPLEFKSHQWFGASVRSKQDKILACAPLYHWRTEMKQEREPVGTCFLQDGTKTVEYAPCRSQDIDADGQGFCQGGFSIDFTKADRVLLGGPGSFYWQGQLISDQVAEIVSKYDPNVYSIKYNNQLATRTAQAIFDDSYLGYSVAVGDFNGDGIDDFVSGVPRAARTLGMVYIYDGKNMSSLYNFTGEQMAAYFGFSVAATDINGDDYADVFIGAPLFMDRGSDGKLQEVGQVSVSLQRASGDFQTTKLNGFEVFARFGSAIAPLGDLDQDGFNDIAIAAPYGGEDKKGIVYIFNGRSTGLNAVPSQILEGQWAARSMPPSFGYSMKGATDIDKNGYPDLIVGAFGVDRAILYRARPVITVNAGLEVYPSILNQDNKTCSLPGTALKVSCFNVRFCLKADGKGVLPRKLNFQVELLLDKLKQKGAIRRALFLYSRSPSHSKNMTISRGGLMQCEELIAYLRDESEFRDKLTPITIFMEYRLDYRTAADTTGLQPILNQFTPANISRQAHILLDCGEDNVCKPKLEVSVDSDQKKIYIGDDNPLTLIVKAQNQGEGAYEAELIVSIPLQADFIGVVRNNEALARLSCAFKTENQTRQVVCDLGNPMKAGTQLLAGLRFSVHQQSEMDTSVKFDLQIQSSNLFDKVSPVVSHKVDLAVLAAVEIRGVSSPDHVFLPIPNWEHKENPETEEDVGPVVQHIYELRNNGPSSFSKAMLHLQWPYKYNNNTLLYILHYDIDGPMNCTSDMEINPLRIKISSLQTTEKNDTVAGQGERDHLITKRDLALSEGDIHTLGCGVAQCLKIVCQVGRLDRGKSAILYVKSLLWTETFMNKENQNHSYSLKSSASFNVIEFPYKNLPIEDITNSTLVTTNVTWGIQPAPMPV
Sequence of ITGαvβ3 (P05106 27-718 limits assumed): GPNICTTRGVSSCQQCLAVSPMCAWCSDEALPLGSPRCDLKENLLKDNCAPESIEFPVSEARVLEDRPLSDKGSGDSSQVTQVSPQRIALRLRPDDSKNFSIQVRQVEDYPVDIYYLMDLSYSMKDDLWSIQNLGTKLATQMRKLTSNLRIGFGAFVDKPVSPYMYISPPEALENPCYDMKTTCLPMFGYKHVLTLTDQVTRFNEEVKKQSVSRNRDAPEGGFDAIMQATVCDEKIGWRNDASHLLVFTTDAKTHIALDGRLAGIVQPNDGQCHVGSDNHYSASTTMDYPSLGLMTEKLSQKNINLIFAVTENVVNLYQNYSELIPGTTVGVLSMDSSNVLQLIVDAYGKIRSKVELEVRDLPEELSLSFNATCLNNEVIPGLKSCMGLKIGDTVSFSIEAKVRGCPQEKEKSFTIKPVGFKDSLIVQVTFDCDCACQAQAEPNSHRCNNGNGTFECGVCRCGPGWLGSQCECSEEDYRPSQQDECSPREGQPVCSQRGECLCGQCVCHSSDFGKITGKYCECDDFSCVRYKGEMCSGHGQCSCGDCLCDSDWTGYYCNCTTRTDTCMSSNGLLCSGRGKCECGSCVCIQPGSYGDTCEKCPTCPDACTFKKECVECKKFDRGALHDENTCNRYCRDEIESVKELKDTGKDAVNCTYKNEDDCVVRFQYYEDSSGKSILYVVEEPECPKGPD

SMILES | Kd (ITGαvβ6) | lower affinity for ITGαvβ3 than for ITGαvβ6 (ITGαvβ3; SPR) | Kd (ITGαvβ3; peptide immobilized, integrin as analyte, 1:1 Langmuir fit) | tissue uptake at 1 h [1] | internalization (HNO97 cells; % of the total bound peptide, Example 2, within 60 min) | maximum binding capacity of ^177Lu-DOTA-labeled peptide (kinetics) (HNO97 cells; Example 2, 10 min to 480 min (FIG. 16)) | total bound ^177Lu-DOTA-labeled peptide (internalization experiment) (HNO97 cells; Example 2, FIG. 17A, B) | scintigraphic accumulation [2]
CSCC[C@@H]1NC(=O)[C@H](CC(C)C)NC(=O)[C@H](CC(=O)O)NC(=O)CNC(=O)[C@H](CCCNC(=N)N)NC(=O)[C@H](Cc2ccccc2)NC(=O)[C@H]([C@@H](C)O)NC(=O)[C@@H](NC(=O)[C@H](CCCNC(=N)N)NC(=O)CN)CSSC[C@@H](C(=O)N[C@@H](Cc2ccc(O)cc2)C(=O)N2CCC[C@H]2C(=O)N[C@@H](CC(=O)O)C(=O)O)NC(=O)[C@H](CC(C)C)NC(=O)[C@H](CCC(N)=O)NC1=O [SFITGv6, NH2-G-R-C1-T-F-R-G-D-L-M-Q-L-C1-Y-P-D-COOH] (H-GRCTFRGDLMQLCYPD-OH; disulfide 3-13) | 14.8 ± 26 nM | ten-fold lower affinity | 185 ± 0.8 nM | – | – | – | – | –
CC(C)C[C@@H]1NC(=O)[C@H](CC(=O)O)NC(=O)CNC(=O)[C@H](CCCNC(=N)N)NC(=O)CNC(=O)[C@H]([C@@H](C)O)NC(=O)[C@@H](NC(=O)[C@H](CCCNC(=N)N)NC(=O)CNC(=O)CN2CCN(CC(=O)O)CCN(CC(=O)O)CCN(CC(=O)O)CC2)CSSC[C@@H](C(=O)N[C@@H](Cc2ccc(O)cc2)C(=O)N2CCC[C@H]2C(=O)N[C@@H](CC(=O)O)C(N)=O)NC(=O)[C@H](CC(C)C)NC(=O)[C@H](CCCNC(=N)N)NC(=O)CNC1=O [^177Lu-DOTA-SFLAP3, metal not drawn] ({DOTA}-GRCTGRGDLGRLCYPD-NH2; disulfide 3-13; N-terminus and C-terminus assumed) | – | – | – | 4 %ID/g | 60% | 18.5% | 11.14% | accumulation in the metastatic sites

Source: patent publication US20200131227A1, “POLYPEPTIDE WITH TUMOUR BINDING ACTIVITY” (RUPRECHT-KARLS-UNIVERSITÄT HEIDELBERG, priority 2017, published 2020)
